{"source": "the supplement of paper PMC10627819", "assay_in_all_cases": "Bliss interaction score (quartile over a dose matrix) (fitness difference); higher = more antagonism (negative = synergy)", "key": {"S. aureus Newman": {"tested_on": "S. aureus Newman", "outline": "(§1)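 Fitness was defined as normalised growth: OD595 at the start of stationary phase divided by the plate's robust no-drug mean and capped at 1. Single-drug fitness was inferred from combination measurements. The Bliss score is observed fitness minus the product of the single-drug values, summarised by quartiles across technical, biological and donor/recipient replicates.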"}, "B. subtilis 168": {"tested_on": "B. subtilis 168", "outline": "as §1"}, "S. pneumoniae D39V": {"tested_on": "S. pneumoniae D39V", "outline": "as §1"}, "S. aureus DSM 20231": {"tested_on": "S. aureus DSM 20231", "outline": "as §1"}}}
{"smiles": "CN[C@H](CC(C)C)C(=O)N[C@H]1C(=O)N[C@@H](CC(N)=O)C(=O)N[C@H]2C(=O)N[C@H]3C(=O)N[C@H](C(=O)N[C@H](C(=O)O)c4cc(O)cc(O)c4-c4cc3ccc4O)[C@H](O[C@H]3C[C@](C)(N)[C@@H](O)[C@H](C)O3)c3ccc(c(Cl)c3)Oc3cc2cc(c3O[C@@H]2O[C@H](CO)[C@@H](O)[C@H](O)[C@H]2O[C@H]2C[C@](C)(NCc3ccc(-c4ccc(Cl)cc4)cc3)[C@@H](O)[C@H](C)O2)Oc2ccc(cc2Cl)[C@H]1O", "note": "[Oritavancin] + C/C(=C\\C(=O)OCCCCCCCCC(=O)O)C[C@@H]1OC[C@H](C[C@@H]2O[C@H]2[C@@H](C)[C@H](C)O)[C@@H](O)[C@H]1O [Pseudomonic acid]", "values": [{"measurement": "Bliss interaction score", "setting": "S. aureus Newman", "result": 0.0197}, {"measurement": "Bliss interaction score", "setting": "B. subtilis 168", "result": 0.0341}, {"measurement": "Bliss interaction score", "setting": "S. pneumoniae D39V", "result": 0.0558}, {"measurement": "Bliss interaction score", "setting": "S. aureus DSM 20231", "result": 0.0201}]}
{"smiles": "CN[C@H](CC(C)C)C(=O)N[C@H]1C(=O)N[C@@H](CC(N)=O)C(=O)N[C@H]2C(=O)N[C@H]3C(=O)N[C@H](C(=O)N[C@H](C(=O)O)c4cc(O)cc(O)c4-c4cc3ccc4O)[C@H](O[C@H]3C[C@](C)(N)[C@@H](O)[C@H](C)O3)c3ccc(c(Cl)c3)Oc3cc2cc(c3O[C@@H]2O[C@H](CO)[C@@H](O)[C@H](O)[C@H]2O[C@H]2C[C@](C)(NCc3ccc(-c4ccc(Cl)cc4)cc3)[C@@H](O)[C@H](C)O2)Oc2ccc(cc2Cl)[C@H]1O", "note": "[Oritavancin] + CC1(C)S[C@@H]2[C@H](NC(=O)Cc3ccccc3)C(=O)N2[C@H]1C(=O)O [PenicillinG]", "values": [{"measurement": "Bliss interaction score", "setting": "S. aureus Newman", "result": -0.066}, {"measurement": "Bliss interaction score", "setting": "B. subtilis 168", "result": 0.0358}, {"measurement": "Bliss interaction score", "setting": "S. pneumoniae D39V", "result": 0.0412}, {"measurement": "Bliss interaction score", "setting": "S. aureus DSM 20231", "result": 0.0356}]}
{"smiles": "CN[C@H](CC(C)C)C(=O)N[C@H]1C(=O)N[C@@H](CC(N)=O)C(=O)N[C@H]2C(=O)N[C@H]3C(=O)N[C@H](C(=O)N[C@H](C(=O)O)c4cc(O)cc(O)c4-c4cc3ccc4O)[C@H](O[C@H]3C[C@](C)(N)[C@@H](O)[C@H](C)O3)c3ccc(c(Cl)c3)Oc3cc2cc(c3O[C@@H]2O[C@H](CO)[C@@H](O)[C@H](O)[C@H]2O[C@H]2C[C@](C)(NCc3ccc(-c4ccc(Cl)cc4)cc3)[C@@H](O)[C@H](C)O2)Oc2ccc(cc2Cl)[C@H]1O", "note": "[Oritavancin] + CC1=C\\[C@@H](O)CC(=O)Cc2nc(co2)C(=O)N2CCC=C2C(=O)O[C@H](C(C)C)[C@H](C)/C=C/C(=O)NC\\C=C\\1 [Virginiamycin M1]", "values": [{"measurement": "Bliss interaction score", "setting": "S. aureus Newman", "result": -0.0713}, {"measurement": "Bliss interaction score", "setting": "B. subtilis 168", "result": -0.0178}, {"measurement": "Bliss interaction score", "setting": "S. pneumoniae D39V", "result": 0.0739}, {"measurement": "Bliss interaction score", "setting": "S. aureus DSM 20231", "result": -0.0348}]}
{"smiles": "CN[C@H](CC(C)C)C(=O)N[C@H]1C(=O)N[C@@H](CC(N)=O)C(=O)N[C@H]2C(=O)N[C@H]3C(=O)N[C@H](C(=O)N[C@H](C(=O)O)c4cc(O)cc(O)c4-c4cc3ccc4O)[C@H](O[C@H]3C[C@](C)(N)[C@@H](O)[C@H](C)O3)c3ccc(c(Cl)c3)Oc3cc2cc(c3O[C@@H]2O[C@H](CO)[C@@H](O)[C@H](O)[C@H]2O[C@H]2C[C@](C)(NCc3ccc(-c4ccc(Cl)cc4)cc3)[C@@H](O)[C@H](C)O2)Oc2ccc(cc2Cl)[C@H]1O", "note": "[Oritavancin] + CCCCCCCCCC(=O)N[C@@H]1[C@H]([C@@H]([C@H](O[C@H]1OC2=C3C=C4C=C2OC5=C(C=C(C=C5)[C@H]([C@H]6C(=O)N[C@@H](C7=C(C(=CC(=C7)O)OC8[C@H]([C@H]([C@@H]([C@H](O8)CO)O)O)O)C9=C(C=CC(=C9)[C@H](C(=O)N6)NC(=O)[C@@H]4NC(=O)[C@@H]1C2=CC(=CC(=C2)OC2=C(C=CC(=C2)[C@H](C(=O)N[C@H](CC2=CC(=C(O3)C=C2)Cl)C(=O)N1)N)O)O)O)C(=O)O)O[C@H]1[C@@H]([C@H]([C@@H]([C@H](O1)CO)O)O)NC(=O)C)Cl)CO)O)O [Teicoplanin]", "values": [{"measurement": "Bliss interaction score", "setting": "S. aureus Newman; main component drawn", "result": -0.117}, {"measurement": "Bliss interaction score", "setting": "B. subtilis 168; main component drawn", "result": -0.0407}, {"measurement": "Bliss interaction score", "setting": "S. pneumoniae D39V; main component drawn", "result": 0.0813}, {"measurement": "Bliss interaction score", "setting": "S. aureus DSM 20231; main component drawn", "result": -0.0634}]}
{"smiles": "CN[C@H](CC(C)C)C(=O)N[C@H]1C(=O)N[C@@H](CC(N)=O)C(=O)N[C@H]2C(=O)N[C@H]3C(=O)N[C@H](C(=O)N[C@H](C(=O)O)c4cc(O)cc(O)c4-c4cc3ccc4O)[C@H](O[C@H]3C[C@](C)(N)[C@@H](O)[C@H](C)O3)c3ccc(c(Cl)c3)Oc3cc2cc(c3O[C@@H]2O[C@H](CO)[C@@H](O)[C@H](O)[C@H]2O[C@H]2C[C@](C)(NCc3ccc(-c4ccc(Cl)cc4)cc3)[C@@H](O)[C@H](C)O2)Oc2ccc(cc2Cl)[C@H]1O", "note": "[Oritavancin] + CCN(CC)CCOC(=O)c1ccc(N)cc1 [Procaine]", "values": [{"measurement": "Bliss interaction score", "setting": "S. aureus Newman", "result": -0.0513}, {"measurement": "Bliss interaction score", "setting": "B. subtilis 168", "result": -0.0177}, {"measurement": "Bliss interaction score", "setting": "S. pneumoniae D39V", "result": -0.0615}, {"measurement": "Bliss interaction score", "setting": "S. aureus DSM 20231", "result": -0.0785}]}
{"smiles": "CN[C@H](CC(C)C)C(=O)N[C@H]1C(=O)N[C@@H](CC(N)=O)C(=O)N[C@H]2C(=O)N[C@H]3C(=O)N[C@H](C(=O)N[C@H](C(=O)O)c4cc(O)cc(O)c4-c4cc3ccc4O)[C@H](O[C@H]3C[C@](C)(N)[C@@H](O)[C@H](C)O3)c3ccc(c(Cl)c3)Oc3cc2cc(c3O[C@@H]2O[C@H](CO)[C@@H](O)[C@H](O)[C@H]2O[C@H]2C[C@](C)(NCc3ccc(-c4ccc(Cl)cc4)cc3)[C@@H](O)[C@H](C)O2)Oc2ccc(cc2Cl)[C@H]1O", "note": "[Oritavancin] + CC[C@H]1OC(=O)[C@H](C)C(=O)[C@H](C)[C@@H](O[C@@H]2O[C@H](C)C[C@H](N(C)C)[C@H]2O)[C@](C)(OC)C[C@@H](C)C(=O)[C@H](C)[C@H]2N(CCCCn3cnc(-c4cccnc4)c3)C(=O)O[C@]12C [Telithromycin]", "values": [{"measurement": "Bliss interaction score", "setting": "S. aureus Newman", "result": -0.0486}, {"measurement": "Bliss interaction score", "setting": "B. subtilis 168", "result": 0.0211}, {"measurement": "Bliss interaction score", "setting": "S. pneumoniae D39V", "result": 0.0281}, {"measurement": "Bliss interaction score", "setting": "S. aureus DSM 20231", "result": -0.0333}]}
{"smiles": "CN[C@H](CC(C)C)C(=O)N[C@H]1C(=O)N[C@@H](CC(N)=O)C(=O)N[C@H]2C(=O)N[C@H]3C(=O)N[C@H](C(=O)N[C@H](C(=O)O)c4cc(O)cc(O)c4-c4cc3ccc4O)[C@H](O[C@H]3C[C@](C)(N)[C@@H](O)[C@H](C)O3)c3ccc(c(Cl)c3)Oc3cc2cc(c3O[C@@H]2O[C@H](CO)[C@@H](O)[C@H](O)[C@H]2O[C@H]2C[C@](C)(NCc3ccc(-c4ccc(Cl)cc4)cc3)[C@@H](O)[C@H](C)O2)Oc2ccc(cc2Cl)[C@H]1O", "note": "[Oritavancin] + CN1C2=CC=CC=C2N=C3C1=CC=CC3=O [Pyocyanin]", "values": [{"measurement": "Bliss interaction score", "setting": "S. aureus Newman", "result": -0.105}, {"measurement": "Bliss interaction score", "setting": "B. subtilis 168", "result": -0.0238}, {"measurement": "Bliss interaction score", "setting": "S. pneumoniae D39V", "result": -0.0208}, {"measurement": "Bliss interaction score", "setting": "S. aureus DSM 20231", "result": -0.047}]}
{"smiles": "CN[C@H](CC(C)C)C(=O)N[C@H]1C(=O)N[C@@H](CC(N)=O)C(=O)N[C@H]2C(=O)N[C@H]3C(=O)N[C@H](C(=O)N[C@H](C(=O)O)c4cc(O)cc(O)c4-c4cc3ccc4O)[C@H](O[C@H]3C[C@](C)(N)[C@@H](O)[C@H](C)O3)c3ccc(c(Cl)c3)Oc3cc2cc(c3O[C@@H]2O[C@H](CO)[C@@H](O)[C@H](O)[C@H]2O[C@H]2C[C@](C)(NCc3ccc(-c4ccc(Cl)cc4)cc3)[C@@H](O)[C@H](C)O2)Oc2ccc(cc2Cl)[C@H]1O", "note": "[Oritavancin] + CN(C)c1cc(NC(=O)CNC(C)(C)C)c(O)c2c1C[C@H]1C[C@H]3[C@H](N(C)C)C(O)=C(C(N)=O)C(=O)[C@@]3(O)C(O)=C1C2=O [Tigecycline]", "values": [{"measurement": "Bliss interaction score", "setting": "S. aureus Newman", "result": -0.0634}, {"measurement": "Bliss interaction score", "setting": "B. subtilis 168", "result": -0.0328}, {"measurement": "Bliss interaction score", "setting": "S. pneumoniae D39V", "result": 0.0458}, {"measurement": "Bliss interaction score", "setting": "S. aureus DSM 20231", "result": -0.0305}]}
